Results: patent US9663454B2, “3-aryl propiolonitrile compounds for thiol labeling” (Universite de Strasbourg, priority 2013, dated 2017)

What was measured:
[1] = Selectivity screening of electrophiles, whole panel of amino acid models; details: 1 hour, PBS (1×, pH 7.6), 1 mM reagents
Procedure: Screening for selectivity was done on benzylamides of non-protected amino acids. 100 mM stock solutions of benzylamides of amino acids (in form of TFA salts) and electrophiles (phenylpropiolonitrile and phenylmaleimide) were prepared in DMSO and stored at −20° C. A 100 mM stock solution of benzamide (used as an internal standard) was prepared in distilled water and stocked at −20° C. Analyses of reaction mixtures were conducted with Shimadzu LC with SunFire™ C18 5 μM 4.6×150 mm column (Waters). HPLC parameters were as follows: flow rate 1 mL/min, gradient from 5 to 95% of mobile phase B from 0 to 20 min, followed by 5 min at 95% of mobile phase and post time of 5 min. Mobile phase A was 0.05% TFA in water (mQ) (v/v), and mobile phase B was acetonitrile (HPLC grade). Data were analyzed using Shimadzu analysis software. Signals were normalized according to the area of the peak of the internal standard (benzamide). […]
10 μL of the stock solution of amino acid benzamide and 2.5 μL of the stock solution of benzamide were added to a vial containing 977.5 μL of PBS (1×, pH 7.6). […] Aliquots of the reaction mixture (50 μL) were analyzed by HPLC for 1 hour of hydrolysis (injections at 0, 30 and 60 min). […] Masses of corresponding adducts were detected by mass spectrometry (ESI-LCMS) in some cases (shown in bold, Table 4).

[2] = Selectivity screening of electrophiles on amino acid benzylamides, HPLC; details: in 1 hour in PBS (1×, pH 7.6) in presence of the electrophile, 1 mM reagents
Procedure: Screening for selectivity was done on benzylamides of non-protected amino acids. 100 mM stock solutions of benzylamides of amino acids (in form of TFA salts) and electrophiles (phenylpropiolonitrile and phenylmaleimide) were prepared in DMSO and stored at −20° C. A 100 mM stock solution of benzamide (used as an internal standard) was prepared in distilled water and stocked at −20° C. Analyses of reaction mixtures were conducted with Shimadzu LC with SunFire™ C18 5 μM 4.6×150 mm column (Waters). HPLC parameters were as follows: flow rate 1 mL/min, gradient from 5 to 95% of mobile phase B from 0 to 20 min, followed by 5 min at 95% of mobile phase and post time of 5 min. Mobile phase A was 0.05% TFA in water (mQ) (v/v), and mobile phase B was acetonitrile (HPLC grade). Data were analyzed using Shimadzu analysis software. Signals were normalized according to the area of the peak of the internal standard (benzamide). Areas under the peaks of the amino acid benzylamides were used to calculate their conversion during reaction.
10 μL of the stock solution of amino acid benzamide and 2.5 μL of the stock solution of benzamide were added to a vial containing 977.5 μL of PBS (1×, pH 7.6). The solution was stirred and 10 μL of the stock solution of electrophile were added to give 1 mM final concentrations of reagents and 0.25 mM concentration of benzamide. Aliquots of the reaction mixture (50 μL) were analyzed by HPLC for 1 hour of hydrolysis (injections at 0, 30 and 60 min). Areas under the peaks of the starting materials and hydrolysis products were normalized according to the area of peak of the internal standard. In case of phenylpropiolonitrile, none of amino acid models gave more than 1.6% conversion (see table 3 below). […] Masses of corresponding adducts were detected by mass spectrometry (ESI-LCMS) in some cases (shown in bold, Table 4).

[3] = system: BNL CL.2 cells; assay: Stability of probes A and B in cellulo (cytometry, microscopy); format: cell-based, mouse; details: 1 μM, 2, 6 and 24 hours, FIG. 2
Procedure: FIG. 2a-2c: a) Evolution of intensity of fluorescence over time obtained in cellulo for the same concentration of compounds A and B. • b) Intensity ratio compound B/compound A at different times in cellulo. • c) Microscope pictures of cells treated with compounds A and B, superimposition of TAMRA and Hoechst labeling. White spots around nucleus correspond to hydrolyzed probe. A—arylpropiolonitrile probe, B—maleimide probe.
Normal liver BNL CL.2 cells from mouse were grown in Dulbecco's MEM medium with 1 g/l glucose (Eurobio, Les Ulis, France) supplemented with 10% fetal bovine serum (Perbio, Brebieres, France), 2 mM L-Glutamine, 100 U/mL penicillin, 100 μg/mL streptomycin (Eurobio). Cells were maintained in a 5% CO2 humidified atmosphere at 37° C.
The required amounts of probes A and B were diluted up to 300 μl in MEM complete medium to give final concentration of 1 μM and then added onto the cells. A 5 μg/ml of Hoechst 118 solution was used as a nuclear marker.
The day before experiment, BNL CL.2 cells were seeded in 96-plates (Greiner Bio One, Frickenhausen, Germany) at 2.0×10^4 cells/well in Dulbecco's MEM complete medium. […] After washing with PBS (Eurobio), 5 min incubation with 40 μl trypsine, and addition of 160 μl of PBS EDTA 5 mM, cells were analyzed by flow cytometry on a PCA-96 Guava cytometer (Guava Technologies Merck Millipore, Billerica, Mass., USA) with a green laser.

[4] = Stability of probes A and B in human plasma (fluorescence over time); format: in vitro ADME; details: same concentration of A and B, FIG. 1
Text: FIG. 1: Evolution of intensity of fluorescence over time obtained in human plasma for the same concentration of compounds A and B.
The stability of compounds A (according to the invention) and B (reference compound) below was studied in different biological conditions.

[5] = Hydrolytic stability in PBS, HPLC monitoring; format: physicochemical; details: PBS (1×, pH 7.6), 1 mM, 25° C.
Procedure: FIG. 3a-3b: HPLC monitoring of the hydrolysis of phenylmaleimide (2) in PBS (1×, pH 7.6) at 1 mM concentration at 25° C.; the peaks correspond, from the earliest to the latest, to
[drawing 5] conversion was monitored by disappearance of the starting material (a). Pseudo first order rate constant for the reaction was determined by plotting the ln([phenylmaleimide]) versus time and analyzing by linear regression. The constant corresponds to the absolute value of determined slope (b).
FIG. 4: HPLC monitoring of hydrolytic stability of N-(4-(cyanoethynyl)phenyl)acetamide (pNHAc-APN, 11) in PBS (1×, pH 7.6) at 1 mM concentration at 25° C. Conversion was monitored by disappearance of the starting material; the peaks correspond, from the earliest to the latest, to
To a vial containing 980 μL of PBS (1×, pH 7.6), were subsequently added 10 μL of a stock solution of benzamide and 10 μL of a stock solution of electrophile (phenylmaleimide 1 or
[drawing 112] 11) to give final concentration of 1 mM (both internal standard and electrophile). Aliquots of the reaction mixture (50 μL) were analyzed by HPLC for 5 hours of hydrolysis (injection every 30 min). Areas under the peaks of the starting materials and hydrolysis products were normalized according to the area of the peak of the internal standard.

SMILES: N#CC#Cc1ccccc1 [phenylpropiolonitrile]
- highest conversion among the amino acid models other than cysteine [1]: ≤ 1.6%
- Conversion of AlaNHBn (7c) [2]: 0.1%
- Conversion of ArgNHBn (7k) [2]: 0.4%
- Conversion of AspNHBn (7l) [2]: 0.6%
- Conversion of CysNHBn (7a) [2]: 98%
- Conversion of GlnNHBn (7i) [2]: 0.1%
- Conversion of GlyNHBn (7b) [2]: 0.2%
- Conversion of HisNHBn (7h) [2]: 0.6%
- Conversion of MetNHBn (7f) [2]: 0.1%
- Conversion of SerNHBn (7e) [2]: 0.3%
- Conversion of TrpNHBn (7j) [2]: 1.3%
- Conversion of TyrNHBn (7g) [2]: 1.6%
- Conversion of ValNHBn (7d) [2]: 0.7%

SMILES: COc1cc(/N=N/c2ccc([N+](=O)[O-])cc2)c(OC)cc1/N=N/c1ccc(N(C)CCCC(=O)NCCSC(=CC#N)c2ccc(NC(=O)CCCNC(=O)c3ccc(-c4c5ccc(=[N+](C)C)cc-5oc5cc(N(C)C)ccc45)c(C(=O)[O-])c3)cc2)cc1 [A]
- stability in cellulo (in words) [3]: far more stable than compound B in cellulo
- stability in human plasma (in words) [4]: far more stable than compound B in human plasma

SMILES: O=C1C=CC(=O)N1c1ccccc1 [phenylmaleimide, reference compound]
- highest conversion among the amino acid models other than cysteine [1]: up to 8.5%
- Conversion of AlaNHBn (7c) [2]: 0.2%
- Conversion of ArgNHBn (7k) [2]: 2.9%
- Conversion of AspNHBn (7l) [2]: 1.3%
- Conversion of CysNHBn (7a) [2]: 100%
- Conversion of GlnNHBn (7i) [2]: 1.7%
- Conversion of GlyNHBn (7b) [2]: 3.3%
- Conversion of HisNHBn (7h) [2]: 8.5%
- Conversion of MetNHBn (7f) [2]: 1.9%
- Conversion of SerNHBn (7e) [2]: 2.8%
- Conversion of TrpNHBn (7j) [2]: 1.0%
- Conversion of TyrNHBn (7g) [2]: 2.4%
- Conversion of ValNHBn (7d) [2]: 0.9%
- kobs (pseudo first order rate constant of hydrolysis) [5]: 7e-05 s⁻¹
- hydrolysis (in words) ([5]; up to 5 hours of monitoring): Noticeable hydrolysis
